Laboratory results as given in ChEMBL document CHEMBL5244230, “Artemisinin-derived hybrids and their anticancer activity” (Eur J Med Chem, 2020).

Tests used:
Type in all cases: functional, cell-based
MDA-MB-231 = experiment: Antiproliferative activity against human MDA-MB-231 cells assessed as reduction in cell viability measured for 72 hrs by MTT assay; conditions: MDA-MB-231, 72 h
A549 = experiment: Antiproliferative activity against human A549 cells assessed as reduction in cell viability measured for 72 hrs by MTT assay; conditions: A549, 72 h
HeLa = experiment: Antiproliferative activity against human HeLa cells assessed as reduction in cell viability measured for 72 hrs by MTT assay
HT-29 = experiment: Antiproliferative activity against human HT-29 cells assessed as reduction in cell viability measured for 72 hrs by MTT assay; conditions: HT-29, 72 h
NCI-H460 = experiment: Antiproliferative activity against human NCI-H460 cells assessed as reduction in cell viability measured for 72 hrs by MTT assay; conditions: NCI-H460, 72 h

| Structure (SMILES) | IC50 (MDA-MB-231) [nM] | IC50 (A549) [nM] | IC50 (HeLa) [nM] | IC50 (HT-29) [nM] | IC50 (NCI-H460) [nM] |
| --- | --- | --- | --- | --- | --- |
| C[C@H]1[C@H](NC(=O)COCc2ccc(C(=O)/C=C/c3ccc(Cl)cc3F)cc2)O[C@@H]2O[C@@]3(C)CC[C@H]4[C@H](C)CC[C@@H]1[C@@]24OO3 | 100 | 100 | 100 | 100 | 100 |
| C[C@H]1[C@H](NC(=O)COCc2ccc(C(=O)/C=C/c3cccc(Cl)c3Cl)cc2)O[C@@H]2O[C@@]3(C)CC[C@H]4[C@H](C)CC[C@@H]1[C@@]24OO3 | 100 | 100 | 100 | 100 | 100 |
| COc1ccc(OC)c(/C=C/C(=O)c2ccc(COCC(=O)N[C@@H]3O[C@@H]4O[C@@]5(C)CC[C@H]6[C@H](C)CC[C@@H]([C@H]3C)[C@@]46OO5)cc2)c1 | 100 | 100 | 100 | 100 | 100 |
| C[C@H]1[C@@H](NC(=O)COCc2ccc(/C=C/C(=O)c3ccc(Cl)cc3)cc2)O[C@@H]2O[C@@]3(C)CC[C@H]4[C@H](C)CC[C@@H]1[C@@]24OO3 | 1700 | 1700 | 1700 | 1700 | 1700 |
| C[C@H]1[C@H](NC(=O)COCc2ccc(C(=O)/C=C/c3ccccc3F)cc2)O[C@@H]2O[C@@]3(C)CC[C@H]4[C@H](C)CC[C@@H]1[C@@]24OO3 | 100 | 100 | 100 | 100 | 100 |
| COc1cccc(/C=C/C(=O)c2ccc(COCC(=O)N[C@@H]3O[C@@H]4O[C@@]5(C)CC[C@H]6[C@H](C)CC[C@@H]([C@H]3C)[C@@]46OO5)cc2)c1 | 100 | 100 | 100 | 100 | 100 |
| C[C@H]1[C@H](NC(=O)COCc2ccc(C(=O)/C=C/c3ccc(OC(F)(F)F)cc3)cc2)O[C@@H]2O[C@@]3(C)CC[C@H]4[C@H](C)CC[C@@H]1[C@@]24OO3 | 100 | 100 | 100 | 100 | 100 |
| C[C@H]1[C@@H](NC(=O)COCc2ccc(/C=C/C(=O)c3ccccc3)cc2)O[C@@H]2O[C@@]3(C)CC[C@H]4[C@H](C)CC[C@@H]1[C@@]24OO3 | 1700 | 1700 | 1700 | 1700 | 1700 |
| C[C@H]1[C@H](NC(=O)COCc2ccc(C(=O)/C=C/c3c(Cl)cccc3Cl)cc2)O[C@@H]2O[C@@]3(C)CC[C@H]4[C@H](C)CC[C@@H]1[C@@]24OO3 | 100 | 100 | 100 | 100 | 100 |
| C[C@H]1[C@@H](NC(=O)COCc2ccc(/C=C/C(=O)c3ccc(F)cc3)cc2)O[C@@H]2O[C@@]3(C)CC[C@H]4[C@H](C)CC[C@@H]1[C@@]24OO3 | 1700 | 1700 | 1700 | 1700 | 1700 |
| C[C@H]1[C@H](NC(=O)COCc2ccc(C(=O)/C=C/c3ccc(F)c(F)c3)cc2)O[C@@H]2O[C@@]3(C)CC[C@H]4[C@H](C)CC[C@@H]1[C@@]24OO3 | 100 | 100 | 100 | 100 | 100 |
| C[C@H]1[C@@H](NC(=O)COCc2ccc(/C=C/C(=O)c3ccc(Cl)c(Cl)c3)cc2)O[C@@H]2O[C@@]3(C)CC[C@H]4[C@H](C)CC[C@@H]1[C@@]24OO3 | 1700 | 1700 | 1700 | 1700 | 1700 |
| C[C@H]1[C@H](NC(=O)COCc2ccc(C(=O)/C=C/c3ccc(Cl)cc3)cc2)O[C@@H]2O[C@@]3(C)CC[C@H]4[C@H](C)CC[C@@H]1[C@@]24OO3 | 100 | 100 | 100 | 100 | 100 |
| C[C@H]1[C@@H](NC(=O)COCc2ccc(/C=C/C(=O)c3cccc(Cl)c3)cc2)O[C@@H]2O[C@@]3(C)CC[C@H]4[C@H](C)CC[C@@H]1[C@@]24OO3 | 1700 | 1700 | 1700 | 1700 | 1700 |
| COc1ccc(/C=C/C(=O)c2ccc(COCC(=O)N[C@@H]3O[C@@H]4O[C@@]5(C)CC[C@H]6[C@H](C)CC[C@@H]([C@H]3C)[C@@]46OO5)cc2)c(OC)c1OC | 100 | 100 | 100 | 100 | 100 |
| C[C@H]1[C@H](NC(=O)COCc2ccc(C(=O)/C=C/c3ccc(F)cc3F)cc2)O[C@@H]2O[C@@]3(C)CC[C@H]4[C@H](C)CC[C@@H]1[C@@]24OO3 | 100 | 100 | 100 | 100 | 100 |
| C[C@H]1[C@H](NC(=O)COCc2ccc(C(=O)/C=C/c3cccc(OC(F)(F)F)c3)cc2)O[C@@H]2O[C@@]3(C)CC[C@H]4[C@H](C)CC[C@@H]1[C@@]24OO3 | 100 | 100 | 100 | 100 | 100 |
| C[C@H]1[C@@H](NC(=O)COCc2ccc(C(=O)/C=C/c3ccc(Cl)cc3)cc2)O[C@@H]2O[C@@]3(C)CC[C@H]4[C@H](C)CC[C@@H]1[C@@]24OO3 | 90 | 90 | 90 | 90 | 90 |
| C[C@H]1[C@H](NC(=O)COCc2ccc(C(=O)/C=C/c3ccc(S(C)(=O)=O)cc3)cc2)O[C@@H]2O[C@@]3(C)CC[C@H]4[C@H](C)CC[C@@H]1[C@@]24OO3 | 100 | 100 | 100 | 100 | 100 |
| C[C@H]1[C@H](NC(=O)COCc2ccc(C(=O)/C=C/c3ccc(F)cc3)cc2)O[C@@H]2O[C@@]3(C)CC[C@H]4[C@H](C)CC[C@@H]1[C@@]24OO3 | 100 | 100 | 100 | 100 | 100 |
| C[C@H]1[C@@H](NC(=O)COCc2ccc(/C=C/C(=O)c3ccc(C(F)(F)F)cc3)cc2)O[C@@H]2O[C@@]3(C)CC[C@H]4[C@H](C)CC[C@@H]1[C@@]24OO3 | 1700 | 1700 | 1700 | 1700 | 1700 |
| COc1cccc(C(=O)/C=C/c2ccc(COCC(=O)N[C@H]3O[C@@H]4O[C@@]5(C)CC[C@H]6[C@H](C)CC[C@@H]([C@H]3C)[C@@]46OO5)cc2)c1 | 1700 | 1700 | 1700 | 1700 | 1700 |
